Source: PMC11651181, “Discovery of 6α-Thiazolylcarboxamidonaltrexamine Derivative (NTZ) as a Potent and Central Nervous System Penetrant Opioid Receptor Modulator with Drug-like Properties for Potential Treatment of Opioid Use Disorder” (ACS Pharmacology & Translational Science, 2024)
Counter-ions that a name gives are not always drawn.

What was measured:
Assay type in all cases: in vitro ADME
[1] = Plasma protein binding, Sprague-Dawley rat
Experimental: (§1) The ADMET assessment including the hERG inhibitory activity, plasma protein binding, in vitro metabolic stability profile, CYP inhibitory effect and mutagenic evaluation were conducted by Eurofins Panlabs, Inc.[21],[61],[69]−[71]

[2] = molecular target: T1, CYP1A2 (Homo sapiens, UniProt P05177); experiment: Cytochrome P450 inhibition assay, CYP1A2
T1 construct: Eurofins Panlabs, Inc. (contract laboratory)
T1 sequence (P05177 1-516): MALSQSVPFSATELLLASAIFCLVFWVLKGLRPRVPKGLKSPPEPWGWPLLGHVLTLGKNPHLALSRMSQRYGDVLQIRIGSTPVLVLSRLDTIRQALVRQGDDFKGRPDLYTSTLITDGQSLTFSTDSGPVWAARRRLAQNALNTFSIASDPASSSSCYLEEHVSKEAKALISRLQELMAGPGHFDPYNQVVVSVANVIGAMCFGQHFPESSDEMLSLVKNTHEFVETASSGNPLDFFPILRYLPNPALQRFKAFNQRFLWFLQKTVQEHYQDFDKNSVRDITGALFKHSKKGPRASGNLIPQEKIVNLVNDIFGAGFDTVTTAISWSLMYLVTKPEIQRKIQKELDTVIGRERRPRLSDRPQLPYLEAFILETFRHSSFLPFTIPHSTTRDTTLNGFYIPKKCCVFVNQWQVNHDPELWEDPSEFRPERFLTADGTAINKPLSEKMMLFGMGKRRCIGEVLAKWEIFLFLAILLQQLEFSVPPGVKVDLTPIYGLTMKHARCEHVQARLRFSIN
Experimental: as §1

[3] = molecular target: T2, CYP3A4 (Homo sapiens, UniProt P08684); experiment: Cytochrome P450 inhibition assay, CYP3A4
T2 construct: Eurofins Panlabs, Inc. (contract laboratory)
T2 sequence (P08684 whole entry): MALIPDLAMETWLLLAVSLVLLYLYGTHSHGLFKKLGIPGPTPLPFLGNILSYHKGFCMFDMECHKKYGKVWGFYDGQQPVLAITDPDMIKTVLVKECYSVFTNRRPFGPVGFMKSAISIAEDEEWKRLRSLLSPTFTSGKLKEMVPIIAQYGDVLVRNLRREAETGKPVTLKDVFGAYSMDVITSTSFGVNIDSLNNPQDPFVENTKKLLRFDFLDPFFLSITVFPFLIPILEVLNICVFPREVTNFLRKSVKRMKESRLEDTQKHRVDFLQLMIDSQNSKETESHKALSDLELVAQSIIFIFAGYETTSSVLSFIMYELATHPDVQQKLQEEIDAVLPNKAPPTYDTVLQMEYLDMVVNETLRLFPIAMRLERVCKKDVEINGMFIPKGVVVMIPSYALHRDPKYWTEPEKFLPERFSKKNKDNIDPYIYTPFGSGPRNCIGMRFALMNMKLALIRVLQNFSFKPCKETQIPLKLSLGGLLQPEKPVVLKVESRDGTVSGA
Experimental: as §1

[4] = Plasma protein binding, human
Experimental: as §1

## O=C(N[C@H]1CC[C@@]2(O)[C@H]3Cc4ccc(O)c5c4[C@@]2(CCN3CC2CC2)[C@H]1O5)c1nccs1 [Compound 6, 17-Cyclopropylmethyl-3,14β-dihydroxy-4,5α-epoxy-6α-(2′-thiazolylcarboxamido)-morphinan hydrochloride]
[1]
  fraction unbound: 0.4
[2]; 1.0E-05 M
  inhibition at 10 µM: 7.4%
[2]; 1.0E-07 M
  inhibition at 100 nM: 11.4%
[3]; 1.0E-05 M
  inhibition at 10 µM: 23.5%
[3]; 1.0E-07 M
  inhibition at 100 nM: 10.1%
[4]
  fraction unbound: 0.56
